Reference: ChEMBL document CHEMBL1201862, “PubChem BioAssay data set” (2004)
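Interpolation was linear, between the two tested concentrations surrounding the appropriate level; five concentrations were tested over 48 hours in 96-well plates. Abbreviation: GI50, concentration required for 50% inhibition of growth.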 Activity calls are given as the source filed them. No stated cut-off is given here; in the data, active = GI50 up to about 1.1 µM and inactive = higher.

What was measured:
Test in all cases: NCI anticancer screen, dose series, 48 h
[1] = tested on: A549
[2] = tested on: HT-29
[3] = tested on: SN12C
[4] = tested on: M14
[5] = tested on: MDA-MB-435
[6] = tested on: SK-MEL-5
[7] = tested on: RPMI-8226
[8] = tested on: NCI-H460
[9] = tested on: DU-145
[10] = tested on: OVCAR-5
[11] = tested on: BT-549
[12] = tested on: U-251
[13] = tested on: SNB-75
[14] = tested on: HCT-116
[15] = tested on: NCI/ADR-RES
[16] = tested on: MCF7
[17] = tested on: MDA-N
[18] = tested on: SK-OV-3
[19] = tested on: SW-620
[20] = tested on: SF-539

| SMILES | GI50 [1] | GI50 [2] | GI50 [3] | GI50 [4] | GI50 [5] | GI50 [6] | GI50 [7] | GI50 [8] | GI50 [9] | GI50 [10] | GI50 [11] | GI50 [12] | GI50 [13] | GI50 [14] | GI50 [15] | GI50 [16] | GI50 [17] | GI50 [18] | GI50 [19] | GI50 [20] |
| --- | --- | --- | --- | --- | --- | --- | --- | --- | --- | --- | --- | --- | --- | --- | --- | --- | --- | --- | --- | --- |
| O=[As](O)(O)c1ccc(NCc2ccccc2)cc1 | > 100 µM (inactive) | > 100 µM (inactive) | > 100 µM (inactive) | > 100 µM (inactive) | > 100 µM (inactive) | > 100 µM (inactive) | > 100 µM (inactive) | > 100 µM (inactive) | > 100 µM (inactive) | > 100 µM (inactive) | > 100 µM (inactive) | > 100 µM (inactive) | > 100 µM (inactive) | > 100 µM (inactive) | > 100 µM (inactive) | > 100 µM (inactive) | > 100 µM (inactive) |  |  |  |
| CCCCC/C=C1\CC(CO)(COC(=O)CC(C(C)C)C(C)C)OC1=O (stereo unspecified) | 8.89 µM (inactive) | 19.9 µM (inactive) | 16.1 µM (inactive) | 14.6 µM (inactive) | 8.59 µM (inactive) | 11 µM (inactive) |  | 16.4 µM (inactive) | 15.6 µM (inactive) | 12.7 µM (inactive) | 16.4 µM (inactive) | 14.5 µM (inactive) | 12.1 µM (inactive) | 18.7 µM (inactive) | 20.3 µM (inactive) | 21.6 µM (inactive) | 8.15 µM (inactive) | 19.1 µM (inactive) | 29.3 µM (inactive) |  |
| Cc1cc(C)c2c(c1)C/C(=C\c1ccccc1C(=O)O)C2=O | 68.4 µM (inactive) | > 100 µM (inactive) | > 100 µM (inactive) | > 100 µM (inactive) |  | 82.4 µM (inactive) | > 100 µM (inactive) | 11.7 µM (inactive) | > 100 µM (inactive) | > 100 µM (inactive) | 29.9 µM (inactive) | 7.46 µM (inactive) | 75.3 µM (inactive) | 76.6 µM (inactive) |  | 78.2 µM (inactive) | > 100 µM (inactive) |  | > 100 µM (inactive) | 39.4 µM (inactive) |
| O=C(Nc1ccccc1)c1cc(S(=O)(=O)Nc2n[nH]c(=O)[nH]2)c(SSc2cc(Cl)c(C(=O)Nc3ccccc3)cc2S(=O)(=O)Nc2n[nH]c(=O)[nH]2)cc1Cl | > 100 µM (inactive) | > 100 µM (inactive) | > 100 µM (inactive) | > 100 µM (inactive) | > 100 µM (inactive) | > 100 µM (inactive) | > 100 µM (inactive) | > 100 µM (inactive) |  | > 100 µM (inactive) | > 100 µM (inactive) | > 100 µM (inactive) | > 100 µM (inactive) | > 100 µM (inactive) | > 100 µM (inactive) | > 100 µM (inactive) | > 100 µM (inactive) | > 100 µM (inactive) | > 100 µM (inactive) |  |
| O=C1c2c(O)cccc2C(C(=O)CCCC(=O)C2c3cccc(O)c3C(=O)c3c(O)cccc32)c2cccc(O)c21 | 0.393 µM (active) | 0.746 µM (active) | 0.643 µM (active) | 0.368 µM (active) | 0.746 µM (active) | 0.259 µM (active) | 0.0679 µM (active) | 0.0803 µM (active) | 0.519 µM (active) | 0.469 µM (active) | 0.524 µM (active) | 0.212 µM (active) | 0.448 µM (active) | 0.22 µM (active) |  | 0.598 µM (active) | 0.442 µM (active) | 0.353 µM (active) | 0.244 µM (active) | 0.179 µM (active) |
| Cc1ccc(/N=N/C(=NNC(=O)c2ccc(C)cc2)c2ccc(N(C)C)cc2)cc1 | 28.6 µM (inactive) | 31.1 µM (inactive) | 23.2 µM (inactive) | 24.8 µM (inactive) | 16.6 µM (inactive) | 15.5 µM (inactive) | 22.3 µM (inactive) | 25.3 µM (inactive) | 20.8 µM (inactive) | 51.8 µM (inactive) | 26.2 µM (inactive) | 34.4 µM (inactive) |  | 24.2 µM (inactive) | 41.3 µM (inactive) | 20 µM (inactive) | 19.8 µM (inactive) | 23.7 µM (inactive) | 32.2 µM (inactive) | 43 µM (inactive) |
| CN1CCN(C(=S)N(C(=O)c2cccs2)C2CCCCC2)CC1 | > 100 µM (inactive) | > 100 µM (inactive) | > 100 µM (inactive) | > 100 µM (inactive) | > 100 µM (inactive) | > 100 µM (inactive) | > 100 µM (inactive) | > 100 µM (inactive) | > 100 µM (inactive) | > 100 µM (inactive) | > 100 µM (inactive) | > 100 µM (inactive) | 89.9 µM (inactive) |  |  | > 100 µM (inactive) | > 100 µM (inactive) |  | > 100 µM (inactive) |  |
| CCN(CC)P(=O)(c1ccc2c(c1)OCCOCCOCCOCCO2)N(CC)CC | > 100 µM (inactive) |  | > 100 µM (inactive) | > 100 µM (inactive) | > 100 µM (inactive) | > 100 µM (inactive) | > 100 µM (inactive) | > 100 µM (inactive) | > 100 µM (inactive) |  | > 100 µM (inactive) |  | > 100 µM (inactive) | > 100 µM (inactive) |  | > 100 µM (inactive) | > 100 µM (inactive) | > 100 µM (inactive) | > 100 µM (inactive) | > 100 µM (inactive) |
| [N-]=[N+]=NC1=C(C(=O)c2ccccc2)C(=O)c2cccc3cccc1c23 | 45.2 µM (inactive) | 51.2 µM (inactive) | 63 µM (inactive) | 49.9 µM (inactive) | 51.5 µM (inactive) | 44.2 µM (inactive) | 37.2 µM (inactive) |  |  | > 100 µM (inactive) | 44.8 µM (inactive) | 21.2 µM (inactive) | 15.8 µM (inactive) | 72.1 µM (inactive) | 67.3 µM (inactive) | 6.79 µM (inactive) | 64.3 µM (inactive) | 26.6 µM (inactive) | > 100 µM (inactive) | 49.3 µM (inactive) |
| NNc1nc2ccccc2c(=O)n1NC(=O)C(=O)Nc1cccc(C(F)(F)F)c1 | > 100 µM (inactive) | > 100 µM (inactive) | > 100 µM (inactive) | > 100 µM (inactive) | > 100 µM (inactive) | > 100 µM (inactive) | > 100 µM (inactive) | > 100 µM (inactive) |  | > 100 µM (inactive) | > 100 µM (inactive) | > 100 µM (inactive) | > 100 µM (inactive) | > 100 µM (inactive) | > 100 µM (inactive) | > 100 µM (inactive) | > 100 µM (inactive) | > 100 µM (inactive) | > 100 µM (inactive) | > 100 µM (inactive) |
| CCCCCCCCCCCCCCCCS(=O)(=O)c1ccc(NN)cc1 | 5.27 µM (inactive) | > 10 µM (inactive) | > 10 µM (inactive) | > 10 µM (inactive) | > 10 µM (inactive) | > 10 µM (inactive) | 5.33 µM (inactive) | > 10 µM (inactive) | > 10 µM (inactive) | > 10 µM (inactive) | > 10 µM (inactive) | 6.19 µM (inactive) |  | 4.76 µM (inactive) | > 10 µM (inactive) | > 10 µM (inactive) | > 10 µM (inactive) | > 10 µM (inactive) | > 10 µM (inactive) | 7.43 µM (inactive) |
| O=C(Cc1nc2ccc(C(=O)c3ccccc3)cc2nc1O)C(=O)Nc1ccc(Br)cc1 | > 100 µM (inactive) | > 100 µM (inactive) | > 100 µM (inactive) | > 100 µM (inactive) | 44.4 µM (inactive) | > 100 µM (inactive) | 99.3 µM (inactive) | > 100 µM (inactive) |  | > 100 µM (inactive) | > 100 µM (inactive) | > 100 µM (inactive) | 38 µM (inactive) | 75.3 µM (inactive) | > 100 µM (inactive) | > 100 µM (inactive) | 39.7 µM (inactive) | > 100 µM (inactive) | > 100 µM (inactive) | > 100 µM (inactive) |
| Cc1cc2nc3c(N)nn(CCCN(C)C)c3nc2cc1C | > 100 µM (inactive) | 38.3 µM (inactive) | > 100 µM (inactive) | 30.1 µM (inactive) | 90.8 µM (inactive) | > 100 µM (inactive) | > 100 µM (inactive) | 80.5 µM (inactive) | > 100 µM (inactive) | > 100 µM (inactive) | > 100 µM (inactive) | 71.9 µM (inactive) | > 100 µM (inactive) | 50.5 µM (inactive) | 59.7 µM (inactive) | 33.4 µM (inactive) |  | > 100 µM (inactive) | 56.9 µM (inactive) | > 100 µM (inactive) |
| Clc1ccc2c(NCCNC3CCCCC3)ccnc2c1 | 13.6 µM (inactive) | 3.15 µM (inactive) | 16.2 µM (inactive) | 1.77 µM (inactive) | 3.04 µM (inactive) | 1.62 µM (inactive) | 3.44 µM (inactive) |  | 16.1 µM (inactive) | 14.9 µM (inactive) | 10.5 µM (inactive) | 5.5 µM (inactive) | 4.63 µM (inactive) | 5.96 µM (inactive) | 11.4 µM (inactive) | 4.53 µM (inactive) | 2.29 µM (inactive) | 13.9 µM (inactive) | 12.2 µM (inactive) |  |
| COc1cc(-c2oc3c(OC)c(O)c(OC)c(O)c3c(=O)c2OC)ccc1O | 65.3 µM (inactive) | 68.1 µM (inactive) | 59.8 µM (inactive) | 10.4 µM (inactive) | 17.8 µM (inactive) | 29.8 µM (inactive) | 26.1 µM (inactive) | 46.1 µM (inactive) | 32 µM (inactive) | > 100 µM (inactive) | 37.9 µM (inactive) | 26.4 µM (inactive) |  | 50.6 µM (inactive) | 50.8 µM (inactive) | 28.9 µM (inactive) | 48.1 µM (inactive) | 17.9 µM (inactive) | 94.4 µM (inactive) | 40.4 µM (inactive) |
